{"source": "patent US6486147B2", "about": "“Cosmetic composition containing a steroid and a 2-alkylalkanol or an ester thereof” (L'Oreal, priority 2000, dated 2002)", "assay": "Solubility of DHEA in various conventional solubilizing agents", "format": "physicochemical", "settings": "for Solubility after one month (AT): ambient temperature", "protocol": "The solubility of DHEA in various conventional solubilizing agents is mentioned in Table 2 below by way of comparison (the percentage of DHEA is calculated with respect to the total weight of DHEA and of solvent; AT refers to ambient temperature): […]", "key": {"[1]": {"settings": "solvent Benzoate of C12-15 alcohols, 3% DHEA"}, "[2]": {"settings": "solvent Propylene glycol, 5-10% DHEA"}, "[3]": {"settings": "solvent Propylene glycol, 15-20% DHEA"}}}
{"smiles": "C[C@]12CC[C@H](O)CC1=CC[C@@H]1[C@@H]2CC[C@]2(C)C(=O)CC[C@@H]12", "note": "[DHEA, dehydroepiandrosterone]", "values": [{"measurement": "Solubility", "setting": "[1]", "value": "Soluble at 50 °C"}, {"measurement": "Solubility after one month (AT)", "setting": "[1]", "value": "Crystals"}, {"measurement": "Solubility", "setting": "solvent Dodecanol, 10% DHEA", "value": "Insoluble even at"}, {"measurement": "Solubility after one month (AT)", "setting": "solvent Dodecanol, 10% DHEA", "value": "Crystals"}, {"measurement": "Solubility", "setting": "solvent Phenoxyethanol, 20% DHEA (of total weight of DHEA and solvent)", "value": "Soluble at AT"}, {"measurement": "Solubility after one month (AT)", "setting": "solvent Phenoxyethanol, 20% DHEA", "value": "Crystals"}, {"measurement": "Solubility", "setting": "[2]", "value": "Soluble at 50 °C"}, {"measurement": "Solubility after one month (AT)", "setting": "[2]", "value": "Crystals"}, {"measurement": "Solubility", "setting": "[3]", "value": "Insoluble at AT"}, {"measurement": "Solubility after one month (AT)", "setting": "[3]", "value": "Crystals"}]}
